pIC50: −log10 of the molar value.
Target: T1, human glucagon receptor (Homo sapiens, UniProt P47871)
T1 construct: expressed in transfected cells; host or cells: BHK (baby hamster kidney) cells
Assay: Glucagon Binding Assay (III)
Settings: BHK cell membranes, WGA SPA beads, 125I-glucagon; read-out: Glu Bd Assay (III) IC50
Method in brief: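 Non-specific binding was set with 500 nM glucagon in this SPA-type binding assay using WGA beads. The receptor source was a membrane preparation, kept on ice or at 4 °C, from BHK cells transfected with the human receptor. Scintillation counts were taken after 4 hours of shaking and 8–48 hours of settling.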

T1 sequence (P47871 26-477): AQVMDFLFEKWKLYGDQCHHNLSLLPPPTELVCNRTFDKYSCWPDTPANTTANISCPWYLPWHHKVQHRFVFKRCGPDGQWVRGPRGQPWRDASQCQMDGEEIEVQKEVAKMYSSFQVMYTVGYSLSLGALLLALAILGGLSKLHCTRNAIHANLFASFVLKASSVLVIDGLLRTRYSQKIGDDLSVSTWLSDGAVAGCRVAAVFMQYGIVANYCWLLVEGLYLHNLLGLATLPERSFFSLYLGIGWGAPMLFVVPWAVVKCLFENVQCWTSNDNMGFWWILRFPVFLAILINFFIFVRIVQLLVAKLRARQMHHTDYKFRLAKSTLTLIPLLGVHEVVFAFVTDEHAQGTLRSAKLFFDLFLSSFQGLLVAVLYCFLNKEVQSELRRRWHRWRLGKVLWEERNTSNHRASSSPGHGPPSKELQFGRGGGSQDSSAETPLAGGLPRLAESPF

Row | pIC50 | SMILES
1 | 5.77 | COc1cc(OC)c(NC(=O)N(Cc2ccc(C(=O)NCCC(=O)O)cc2)C2CCC(C(C)(C)C)CC2)cc1Cl (stereo not drawn) [Example 24, 3-{4-[1-(4-tert-Butylcyclohexyl)-3-(5-chloro-2,4-dimethoxyphenyl)ureidomethyl]benzoylamino}propionic acid]
2 | 6.49 | CCCCc1ccc(N(Cc2ccc(C(=O)Nc3nn[nH]n3)cc2)C(=O)Nc2cccc(S(C)(=O)=O)c2)cc1 [Example 447, 4-[1-(4-Butylphenyl)-3-(3-methylsulfonylphenyl)ureidomethyl]-N-(2H-tetrazol-5-yl)benzamide]
3 | 7.32 | CCCCOC(=O)c1ccc(NC(=O)N(Cc2ccc(C(=O)NCCC(=O)O)cc2)C2CCC(C(C)(C)C)CC2)cc1 (stereo not drawn) [Example 61, 4-{3-(4-tert-Butylcyclohexyl)-3-[4-(2-carboxyethylcarbamoyl)benzyl]ureido}benzoic acid butyl ester]
4 | 6.54 | CC(C)(C)[C@H]1CC[C@H](N(Cc2ccc(C(=O)Nc3nn[nH]n3)cc2)C(=O)Nc2ccc(OCC3CC3)cc2C(F)(F)F)CC1 [Example 334, 4-[1-(trans-4-tert-Butylcyclohexyl)-3-(4-cyclopropylmethoxy-2-trifluoromethylphenyl)ureidomethyl]-N-(2H-tetrazol-5-yl)benzamide]
5 | 6.18 | CC(C)(C)C1CCC(N(Cc2ccc(C(=O)NCCC(=O)O)cc2)C(=O)c2cccc(C(F)(F)F)c2)CC1 (stereo not drawn) [Example 527, 3-(4-{[(4-tert-Butylcyclohexyl)-(3-trifluormethylbenzoyl)amino]methyl}benzoylamino)propionic acid]
6 | 7.19 | O=C(Nc1nn[nH]n1)c1ccc(CN(C(=O)NCc2ccccc2Br)c2ccc(C3CCCCC3)cc2)cc1 [Example 345, 4-[3-(2-Bromobenzyl)-1-(4-cyclohexylphenyl)ureidomethyl]-N-(2H-tetrazol-5-yl)benzamide]
7 | 6.35 | CC(C)Cc1ccc(C(=O)N(Cc2ccc(C(=O)Nc3nn[nH]n3)cc2)c2ccc(C3CCCCC3)cc2)cc1 [Example 507, 4-{[(4-Cyclohexylphenyl)-(4-isobutylbenzoyl)amino]methyl}-N-(2H-tetrazol-5-yl)benzamide]
8 | 7.39 | CN(c1ccccc1)S(=O)(=O)c1cccc(NC(=O)N(Cc2ccc(C(=O)NCCC(=O)O)cc2)c2ccc(C3CCCCC3)cc2)c1 [Example 322, 3-(4-{1-(4-cyclohexylphenyl)-3-[3-(methylphenylsulfamoyl)phenyl]ureidomethyl}benzoylamino)propionic acid]
9 | 6.37 | O=C(O)CCNC(=O)c1ccc(CN(C(=O)Nc2cc(C(F)(F)F)cc(C(F)(F)F)c2)C2CCc3ccccc3C2)cc1 (stereo not drawn) [Example 86, 3-{4-[3-(3,5-Bis(trifluoromethyl)phenyl)-1-(1,2,3,4-tetrahydronaphthalen-2-yl)ureidomethyl]benzoylamino}propionic acid]
10 | 6.50 | CN(C)S(=O)(=O)c1cccc(NC(=O)N(Cc2ccc(C(=O)Nc3nn[nH]n3)cc2)c2ccc(C(C)(C)C)cc2)c1 [Example 276, 4-[1-(4-tert-Butylphenyl)-3-(3-dimethylsulfamoylphenyl)ureidomethyl]-N-(2H-tetrazol-5-yl)benzamide]
11 | 7.10 | O=C(Nc1nn[nH]n1)c1ccc(CN(C(=O)NCc2ccc(OC(F)(F)F)cc2)c2ccc(C3CCCCC3)cc2)cc1 [Example 347, 4-[1-(4-Cyclohexylphenyl)-3-(4-trifluoromethoxybenzyl)ureidomethyl]-N-(2H-tetrazol-5-yl)benzamide]
12 | 8.10 | O=C(Nc1nn[nH]n1)c1ccc(CN(C(=O)Nc2ccc(OC(F)(F)F)c(-c3nc4ccccc4o3)c2)c2ccc(C3CCCCC3)cc2)cc1 [Example 360, 4-[3-(3-Benzoxazol-2-yl-4-trifluoromethoxyphenyl)-1-(4-cyclohexylphenyl)ureidomethyl]-N-(2H-tetrazol-5-yl)benzamide]
13 | 8.05 | O=C(Nc1nn[nH]n1)c1ccc(CN(C(=O)Nc2cc(Br)cc(C(F)(F)F)c2)c2ccc(C3CCCCC3)cc2)cc1 [Example 264, 4-[3-(3-Bromo-5-trifluoromethylphenyl)-1-(4-cyclohexylphenyl)ureidomethyl]-N-(2H-tetrazol-5-yl)benzamide]
14 | 6.56 | CC(C)(C)c1ccc(N(Cc2ccc(C(=O)Nc3nn[nH]n3)cc2)C(=O)Nc2ccccc2)cc1 [Example 329]
15 | 7.41 | CC(C)Cc1ccc(NC(=O)N(Cc2ccc(C(=O)NCCC(=O)O)cc2)C2CCC(C(C)(C)C)CC2)cc1 (stereo not drawn) [Example 62, 3-{4-[1-(4-tert-Butylcyclohexyl)-3-(4-isobutylphenyl)ureidomethyl]benzoylamino}propionic acid]
16 | 6.09 | CCCCC(CC)CN(Cc1ccc(C(=O)NCCC(=O)O)cc1)C(=O)Nc1cccc(C(=O)OCC)c1 (stereo not drawn) [Example 40, 3-[3-[4-(2-Carboxyethylcarbamoyl)benzyl]-3-(2-ethylhexyl)ureido]benzoic acid ethyl ester]
17 | 7.74 | CCCCN1C(=O)c2ccc(NC(=O)N(Cc3ccc(C(=O)NCCC(=O)O)cc3)c3ccc(C4CCCCC4)cc3)cc2C1=O [Example 635, 3-{4-[3-(N′-Butylphthalimid-4-yl)-1-(4-cyclohexylphenyl)ureidomethyl]benzoylamino}propionic acid]
18 | 5.85 | COc1ccc2nc(NC(=O)N(Cc3ccc(C(=O)Nc4nn[nH]n4)cc3)c3ccc(C4CCCCC4)cc3)sc2c1 [Example 365, 4-[1-(4-Cyclohexylphenyl)-3-(6-methoxybenzothiazol-2-yl)ureidomethyl]-N-(2H-tetrazol-5-yl)benzamide]
19 | 7.68 | O=C(Nc1nn[nH]n1)c1ccc(CN(C(=O)Nc2cccc(OC(F)(F)F)c2)c2ccc(C3=CCCCC3)cc2)cc1 [Example 352, 4-[1-(4-Cyclohex-1-enylphenyl)-3-(3-trifluoromethoxyphenyl)ureidomethyl]-N-(2H-tetrazol-5-yl)benzamide]
20 | 6.10 | CSc1cccc(NC(=O)N(Cc2ccc(C(=O)Nc3nn[nH]n3)cc2)c2ccc(N3CCCCC3)cc2)c1 [Example 317, 4-[3-(3-Methylsulfanylphenyl)-1-(4-piperidin-1-ylphenyl)ureidomethyl]-N-(2H-tetrazol-5-yl)benzamide]
21 | 5.75 | CS(=O)(=O)c1cccc(NC(=O)N(Cc2ccc(C(=O)Nc3nn[nH]n3)cc2)c2ccc(OC(F)(F)F)cc2)c1 [Example 450, 4-[3-(3-Methylsulfonylphenyl)-1-(4-trifluoromethoxyphenyl)ureidomethyl]-N-(2H-tetrazol-5-yl)benzamide]
22 | 6.49 | O=C(O)CCNC(=O)c1ccc(CN(Cc2ccc(C(F)(F)F)cc2)Cc2ccc(C(F)(F)F)cc2)cc1 [Example 384, 3-(4-{[Bis(4-trifluoromethylbenzyl)amino]methyl}benzoylamino)propionic acid]
23 | 6.74 | CC(C)(C)C1CCC(N(Cc2ccc(C(=O)Nc3nn[nH]n3)cc2)C(=O)C/C=C/c2ccccc2)CC1 (stereo not drawn) [Example 538, 4-{[(4-tert-Butylcyclohexyl)-(4-phenylbut-3-enoyl)amino]methyl}-N-(2H-tetrazol-5-yl)benzamide]

Row | SMILES | pIC50
24 | CC(C)(C)C1CCC(N(Cc2ccc(C(=O)Nc3nn[nH]n3)cc2)C(=O)c2ccc(OC(F)(F)F)cc2)CC1 (stereo not drawn) [Example 489, 4-{[(4-tert-Butylcyclohexyl)-(4-triflourmethoxybenzoyl)amino]methyl}-N-(2H-tetrazol-5-yl)benzamide] | 6.82
